Source: patent EP4257135A1, “BENZIMIDAZOLE DERIVATIVES FOR PULMONARY ARTERIAL HYPERTENSION” (Justus-Liebig-Universität Gießen, priority 2022, dated 2023)

What was measured:
[1] = system: PAH-SMCs; test: Hyperproliferative phenotype of PAH smooth muscle cells; format: cell-based, human; settings: vs DMSO
Text: (§1) PAH-FBs wurden mit verschiedenen Konzentrationen der Substanz SGC-CBP30 oder dem Lösungsmittel DMSO inkubiert, um die Zellproliferation und die Induktion von Apoptose 24 Stunden danach zu untersuchen. Die Wirkung der selektiven EP300/CREBBP-Inhibition auf die Zellproliferation wurde durch den Einbau von BrdU (Bromodeoxyuridin, 5-Bromo-2'-Deoxyuridin, BUdR, BrdUrd, Broxuridine) bewertet. Die Wirkung der Substanz SGC-CBP30 oder des Lösungsmittels DMSO auf die Induktion von Apoptose wurde durch Cell Death Detection ELISAPLUS bewertet. Dabei zeigten sich deutliche Unterschiede zwischen der Substanz SGC-CBP30 und dem Lösungsmittel DMSO.
(§2) Das therapeutische Potenzial der EP300/CREBBP-Hemmung durch die Substanz SGC-CBP30 wurde untersucht. Dazu wurde die Wirksamkeit auf PAH-FBs und PAH-SMCs geprüft, die aus den Lungenarterien von menschlichen PAH-Patienten und aus den Lungenarterien von Ratten mit MCT-PAH (Rattenmodell mit Monocrotalin) isoliert wurden. […] Die Wirkung der EP300-Hemmung auf das vaskuläre Remodelling wurde durch Quantifizierung der prozentualen medialen Wanddicke in den mit der Substanz SGC-CBP30 inkubierten PCLS im Vergleich zu den mit DMSO inkubierten Kontrollen bewertet. Dabei zeigten sich deutliche Unterschiede zwischen der Substanz SGC-CBP30 und DMSO.

[2] = system: PAH-SMCs; test: Apoptosis in PAH smooth muscle cells; format: cell-based, human; settings: vs DMSO
Text: as §1, §2

[3] = system: PAH-PCLS; test: Ex vivo precision-cut lung slices (PCLS) from PAH lungs, medial wall thickness; format: cell-based; settings: PCLS from human PAH lungs; 200 µM on days 2 and 6, fixed day 10; vessels 20-150 µm; vs DMSO
Text: Lungengewebeproben wurden von Patienten mit IPAH entnommen. Aus den mit 3% niedrigschmelzender Agarose gefüllten Lungenproben von Patienten mit IPAH wurden mit einem Vibratom (Leica Biosystems) Gewebeschnitte (400 µm dick) angefertigt. Die Lungengewebeschnitte wurden in DMEM-GlutaMAX-Medium mit 10 % fetalem Kälberserum, 1 % Penicillin/Streptomycin und 0,1 % Amphotericin B (Thermo Fisher Scientific) kultiviert, und die Behandlung wurde am zweiten Tag eingeleitet. Die Substanz SGC-CBP30 wurde in einer Konzentration von 200 µM an den Tagen 2 und 6 verabreicht. Am 10. Tag wurde das Gewebe in 4% Paraformaldehyd (Roti-Histofix; Carl Roth) fixiert und in Paraffin eingebettet. Die mediale Wanddicke wurde in allen Gefäßen mit einer Größe von 20-150 µm in den Lungenschnitten gemessen.
as §2, with “Dabei zeigten sich deutliche Unterschiede zwischen der Substanz SGC-CBP30 und DMSO.” left out

For `COc1ccc(CCc2nc3cc(-c4c(C)noc4C)ccc3n2C[C@H](C)N2CCOCC2)cc1Cl` [SGC-CBP30, 2-[2-(3-Chloro-4-methoxyphenyl)ethyl]-5-(3,5-dimethyl-1,2-oxazol-4-yl)-1-[(S)-2-(morpholin-4-yl)propyl]-1H-benzimidazole], the “hyperproliferativer Phänotyp” value [1] was “schwächte den hyperproliferativen Phänotyp und die Apoptoserate von PAH-FBs und PAH-SMCs deutlich ab”, the Apoptoserate [2] was “schwächte den hyperproliferativen Phänotyp und die Apoptoserate von PAH-FBs und PAH-SMCs deutlich ab” and the “mediale Wanddicke der umgestalteten PAs” value [3] was “signifikante Verringerung”.
